Test system: B16-F1 mouse melanoma cell line
Assay: B16 melanin synthesis inhibition assay
Format: cell-based
Details: B16-F1 cells, OD at 410 nm
Procedure: In this example, a commercially available B16-F1 mouse melanoma cell line from American Tissue Culture Collection, Virginia, USA was employed in a conventional melanin synthesis inhibition assay. The cell culture medium used in the assay is 500 mL of Dulbecco's Modified Eagle's Medium (DMEM), 50 mL Fetal Bovine Serum (FBS), and 5 mL of penicillin-streptomycin liquid. B16-F1 cells that are cultured in this medium and grown to greater than 90% confluency will synthesize melanin. While not intending to be bound by any theory, it is hypothesized that the melanin synthesis is stimulated by the culture medium and/or stress induced by growth to a high confluency. […] Equipment used in the assay include a CO2 incubator, such as a Forma Series Model 3110 by Therma Scientific, Massachusetts, USA; a hemocytometer, such as a Bright Line model by Hauser Scientific, Pennsylvania, USA; and a UV-Visible Spectrum Plate Reader, such as a SpectraMax250 from Molecular Devices, California, USA. […] Day 3: The cells from the T-150 flask are trypsinized, and the concentration of cells is determined using the hemacytometer. […] Read the 96 well plate using the UV-Vis Plate Reader at 410 nm to optically measure the amount of melanin produced between wells that are treated with the fava bean extract and control wells that are not. […] The concentration of test agent needed to provide the IC 50 is recorded.

Structure (SMILES) | Concentration Needed for IC 50
Oc1ccc(OC2CCCCO2)cc1 (centres unmarked) [Deoxyarbutin] | 0.008 v/v
O=c1cc(CO)occ1O [Kojic Acid] | 0.01 v/v

From patent US20170296459A1, “METHOD OF IMPROVING THE APPEARANCE OF PERIORBITAL DYSCHROMIA” (The Procter & Gamble Company, priority 2016, published 2017)
